# Source: patent US11912701B2, “Protein kinase inhibitors for promoting liver regeneration or reducing or preventing hepatocyte death” (HEPAREGENIX GMBH, priority 2018, dated 2024)
# Legend:
# Format in all cases: biochemical
# JNK1 = JNK1 (Homo sapiens, UniProt P45983); assay: 33PanQinase enzyme assay, JNK1; parameters: purchased ProQinase GmbH, Freiburg, Germany (33PanQinase Assay Service); conditions: ratio IC50(JNK1)/IC50(MKK4)
# Method in brief: (§1)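 Radiometric kinase reactions with ATP, test compound in DMSO and enzyme/substrate mix were incubated 60 min at 30 °C, stopped with 2% H3PO4 and washed; incorporated 33Pi was counted by scintillation. Single-concentration data are given as % residual activity; IC50 values come from least-squares curve fits.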
# MKK7 = molecular target: T1, MKK7 (Homo sapiens, UniProt O14733); assay: 33PanQinase enzyme assay, MKK7; parameters: purchased ProQinase GmbH, Freiburg, Germany (33PanQinase Assay Service); conditions: ratio IC50(MKK7)/IC50(MKK4)
# T1 sequence (O14733 1-419): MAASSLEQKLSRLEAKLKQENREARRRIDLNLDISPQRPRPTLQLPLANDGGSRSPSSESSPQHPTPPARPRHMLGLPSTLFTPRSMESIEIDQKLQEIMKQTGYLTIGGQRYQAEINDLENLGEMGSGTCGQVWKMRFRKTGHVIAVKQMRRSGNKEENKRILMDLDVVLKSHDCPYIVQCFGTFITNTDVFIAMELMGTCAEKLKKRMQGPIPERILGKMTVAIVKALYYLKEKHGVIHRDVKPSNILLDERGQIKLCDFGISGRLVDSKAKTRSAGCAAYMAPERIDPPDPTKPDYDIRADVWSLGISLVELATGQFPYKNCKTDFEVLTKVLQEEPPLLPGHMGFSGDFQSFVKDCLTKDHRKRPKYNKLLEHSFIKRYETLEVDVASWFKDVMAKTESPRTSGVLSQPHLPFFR
# Method in brief: as §1
# BRaf = molecular target: T2, BRaf (Homo sapiens, UniProt P15056); assay: 33PanQinase enzyme assay, BRaf; conditions: ratio IC50(BRaf)/IC50(MKK4)
# T2 construct: purchased ProQinase GmbH, Freiburg, Germany (33PanQinase Assay Service)
# Method in brief: as §1
# MKK4 = molecular target: T3, MKK4 (Homo sapiens, UniProt P45985); assay: 33PanQinase enzyme assay, MKK4; conditions: assay 'IC50'; for IC50: read-out: Potency MKK4 (IC50)
# T3 construct: purchased ProQinase GmbH, Freiburg, Germany (33PanQinase Assay Service)
# T3 sequence (P45985 1-399): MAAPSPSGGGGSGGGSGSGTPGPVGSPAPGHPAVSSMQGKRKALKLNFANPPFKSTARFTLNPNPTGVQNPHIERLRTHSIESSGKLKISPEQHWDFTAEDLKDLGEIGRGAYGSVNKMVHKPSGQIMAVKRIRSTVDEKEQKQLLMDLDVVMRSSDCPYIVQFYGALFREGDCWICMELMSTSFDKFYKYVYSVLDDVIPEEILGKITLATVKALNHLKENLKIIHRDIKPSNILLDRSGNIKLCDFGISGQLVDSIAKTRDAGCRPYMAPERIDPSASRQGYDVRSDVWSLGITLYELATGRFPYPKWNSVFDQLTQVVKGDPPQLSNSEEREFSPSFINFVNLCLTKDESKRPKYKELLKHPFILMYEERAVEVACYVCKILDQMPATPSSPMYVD
# Method in brief: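 Radiometric 33PanQinase assay: kinase, substrate, ATP and compound in standard buffer, 60 min at 30 °C; 33Pi incorporation read by scintillation counting.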
# Chain of JNK1 (P45983 whole entry): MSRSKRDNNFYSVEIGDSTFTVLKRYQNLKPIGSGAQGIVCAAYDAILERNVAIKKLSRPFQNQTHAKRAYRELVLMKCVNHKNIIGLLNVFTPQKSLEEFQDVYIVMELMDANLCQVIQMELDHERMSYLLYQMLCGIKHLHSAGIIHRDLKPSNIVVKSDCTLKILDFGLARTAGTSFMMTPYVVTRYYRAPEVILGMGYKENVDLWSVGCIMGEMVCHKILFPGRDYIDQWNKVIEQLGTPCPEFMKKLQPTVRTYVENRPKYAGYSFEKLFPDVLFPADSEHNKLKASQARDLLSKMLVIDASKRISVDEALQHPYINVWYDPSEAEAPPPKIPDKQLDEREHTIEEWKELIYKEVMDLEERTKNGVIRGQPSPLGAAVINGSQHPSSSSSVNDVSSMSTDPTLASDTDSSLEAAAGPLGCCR
# T2 sequence (P15056 whole entry, species assumed): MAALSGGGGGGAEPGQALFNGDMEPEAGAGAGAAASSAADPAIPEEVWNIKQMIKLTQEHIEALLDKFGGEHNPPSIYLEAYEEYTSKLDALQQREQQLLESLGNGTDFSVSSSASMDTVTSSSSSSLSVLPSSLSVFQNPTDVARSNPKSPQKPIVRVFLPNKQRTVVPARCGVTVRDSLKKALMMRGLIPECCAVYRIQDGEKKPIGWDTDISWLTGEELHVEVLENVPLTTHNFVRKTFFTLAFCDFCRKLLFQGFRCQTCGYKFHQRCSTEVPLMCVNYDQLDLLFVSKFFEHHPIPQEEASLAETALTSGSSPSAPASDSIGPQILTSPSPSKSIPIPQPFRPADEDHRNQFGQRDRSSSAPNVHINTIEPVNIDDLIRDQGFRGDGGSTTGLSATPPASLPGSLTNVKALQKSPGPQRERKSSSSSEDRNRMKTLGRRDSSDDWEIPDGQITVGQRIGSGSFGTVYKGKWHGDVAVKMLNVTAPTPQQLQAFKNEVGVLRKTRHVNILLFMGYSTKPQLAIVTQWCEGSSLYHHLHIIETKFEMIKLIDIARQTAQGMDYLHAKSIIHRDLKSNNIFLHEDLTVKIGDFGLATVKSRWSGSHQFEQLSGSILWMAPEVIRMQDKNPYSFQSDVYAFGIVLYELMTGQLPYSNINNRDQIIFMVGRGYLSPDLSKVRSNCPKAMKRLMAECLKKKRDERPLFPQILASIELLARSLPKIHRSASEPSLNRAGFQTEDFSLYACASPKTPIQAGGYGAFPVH
SMILES,"Selectivity JNK1, IC50(off-target)/IC50(MKK4) (JNK1)","Selectivity IVIKK7, IC50(off-target)/IC50(MKK4) (MKK7)","Selectivity Braf, IC50(off-target)/IC50(MKK4) (BRaf)",IC50 (MKK4) [nM],Potency MKK4 (IC50) (MKK4)
"CCCS(=O)(=O)Nc1ccc(F)c(C(=O)c2c[nH]c3ncc(-c4ccc5ccccc5c4)cc23)c1F [Example 99, N-(2,4-difluoro-3-(5-(naphthalen-2-yl)-1H-pyrrolo[2,3-b]pyridine-3-carbonyl)phenyl)propane-1-sulfonamide]",◯ (3 ≥ IC50(off-target)/IC50(MKK4)),+++ (IC50(off-target)/IC50(MKK4) > 100),◯ (3 ≥ IC50(off-target)/IC50(MKK4)),100 to 1000,
"CCCS(=O)(=O)Nc1c(F)ccc(C(=O)c2c[nH]c3ncc(-c4ccc(F)cc4Cl)cc23)c1F [Example 221, N-(3-(5-(2-chloro-4-fluorophenyl)-1H-pyrrolo[2,3-b]pyridine-3-carbonyl)-2,6-difluorophenyl)propane-1-sulfonamide]",++ (100 ≥ IC50(off-target)/IC50(MKK4) > 10),+++ (IC50(off-target)/IC50(MKK4) > 100),+++ (IC50(off-target)/IC50(MKK4) > 100),< 100,
"O=C(c1cccc(NS(=O)(=O)Cc2ccccc2)c1F)c1c[nH]c2ncc(-c3cnc(C4CC4)nc3)cc12 [Example 131, N-(3-(5-(2-cyclopropylpyrimidin-5-yl)-1H-pyrrolo[2,3-b]pyridine-3-carbonyl)-2-fluorophenyl)-1-phenylmethanesulfonamide]",++ (100 ≥ IC50(off-target)/IC50(MKK4) > 10),+++ (IC50(off-target)/IC50(MKK4) > 100),++ (100 ≥ IC50(off-target)/IC50(MKK4) > 10),100 to 1000,
"CCCS(=O)(=O)Nc1ccc(F)c(C(=O)c2c[nH]c3ncc(-c4ccc(C(C)(C)C)cc4)cc23)c1F [Example 113, N-(3-(5-(4-(tert-butyl)phenyl)-1H-pyrrolo[2,3-b]pyridine-3-carbonyl)-2,4-difluorophenyl)propane-1-sulfonamide]",+ (10 ≥ IC50(off-target)/IC50(MKK4) > 3),+++ (IC50(off-target)/IC50(MKK4) > 100),◯ (3 ≥ IC50(off-target)/IC50(MKK4)),100 to 1000,
"CCCS(=O)(=O)Nc1c(F)ccc(C(=O)c2c[nH]c3ncc(-c4ccc(C5CC5)nc4C)cc23)c1F [Example 170, N-(3-(5-(6-cyclopropyl-2-methylpyridin-3-yl)-1H-pyrrolo[2,3-b]pyridine-3-carbonyl)-2,6-difluorophenyl)propane-1-sulfonamide]",+++ (IC50(off-target)/IC50(MKK4) > 100),+++ (IC50(off-target)/IC50(MKK4) > 100),+++ (IC50(off-target)/IC50(MKK4) > 100),< 100,
CCCS(=O)(=O)Nc1ccc(F)c(C(=O)c2c[nH]c3ncc(N4CCCCC4)cc23)c1F [Example 140],◯ (3 ≥ IC50(off-target)/IC50(MKK4)),++ (100 ≥ IC50(off-target)/IC50(MKK4) > 10),◯ (3 ≥ IC50(off-target)/IC50(MKK4)),1000 to 10000,
"CCCS(=O)(=O)Nc1c(F)ccc(C(=O)c2c[nH]c3ncc(-c4cnc(NCCOC)nc4)cc23)c1F [Example 187, N-(2,6-difluoro-3-(5-(2-((2-methoxyethyl)amino)pyrimidin-5-yl)-1H-pyrrolo[2,3-b]pyridine-3-carbonyl)phenyl)propane-1-sulfonamide]",+++ (IC50(off-target)/IC50(MKK4) > 100),+++ (IC50(off-target)/IC50(MKK4) > 100),+++ (IC50(off-target)/IC50(MKK4) > 100),100 to 1000,
"CCCS(=O)(=O)Nc1c(F)ccc(C(=O)c2c[nH]c3ncc(-c4cnc(N5CCC5)nc4)cc23)c1F [Example 199, N-(3-(5-(2-(azetidin-1-yl)pyrimidin-5-yl)-1H-pyrrolo[2,3-b]pyridine-3-carbonyl)-2,6-difluorophenyl)propane-1-sulfonamide]",++ (100 ≥ IC50(off-target)/IC50(MKK4) > 10),+++ (IC50(off-target)/IC50(MKK4) > 100),++ (100 ≥ IC50(off-target)/IC50(MKK4) > 10),< 100,
"CCCS(=O)(=O)Nc1ccc(F)c(C(=O)c2c[nH]c3ncc(-c4ccccc4C#N)cc23)c1F [Example 118, N-(3-(5-(2-cyanophenyl)-1H-pyrrolo[2,3-b]pyridine-3-carbonyl)-2,4-difluorophenyl)propane-1-sulfonamide]",+ (10 ≥ IC50(off-target)/IC50(MKK4) > 3),+++ (IC50(off-target)/IC50(MKK4) > 100),◯ (3 ≥ IC50(off-target)/IC50(MKK4)),100 to 1000,
"CCCS(=O)(=O)Nc1c(F)ccc(C(=O)c2c[nH]c3ncc(-c4ccc(F)cc4C)cc23)c1F [Example 217, N-(2,6-difluoro-3-(5-(4-fluoro-2-methylphenyl)-1H-pyrrolo[2,3-b]pyridine-3-carbonyl)phenyl)propane-1-sulfonamide]",+++ (IC50(off-target)/IC50(MKK4) > 100),+++ (IC50(off-target)/IC50(MKK4) > 100),+++ (IC50(off-target)/IC50(MKK4) > 100),< 100,
"CCCS(=O)(=O)Nc1c(F)ccc(C(=O)c2c[nH]c3ncc(-c4cnc(N5CCOCC5)nc4)cc23)c1F [Example 188, N-(2,6-difluoro-3-(5-(2-morpholinopyrimidin-5-yl)-1H-pyrrolo[2,3-b]pyridine-3-carbonyl)phenyl)propane-1-sulfonamide]",+++ (IC50(off-target)/IC50(MKK4) > 100),+++ (IC50(off-target)/IC50(MKK4) > 100),+++ (IC50(off-target)/IC50(MKK4) > 100),< 100,
"CCCS(=O)(=O)Nc1c(F)ccc(C(=O)c2c[nH]c3ncc(-c4ccc(-c5nnn[nH]5)cc4)cc23)c1F [Example 219, N-(3-(5-(4-(1H-tetrazol-5-yl)phenyl)-1H-pyrrolo[2,3-b]pyridine-3-carbonyl)-2,6-difluorophenyl)propane-1-sulfonamide]",++ (100 ≥ IC50(off-target)/IC50(MKK4) > 10),+++ (IC50(off-target)/IC50(MKK4) > 100),+++ (IC50(off-target)/IC50(MKK4) > 100),,++·+
